Experimental data published in EP0433084A2, “Use of aromatese inhibitors for the reversal of female sexual phenotype in poultry” (MERCK & CO. INC., priority 1989, dated 1991).
Where a name gives a salt, the structure may show the parent alone. Read-outs that look alike come from different tables or passages of the source.

Assays:
female Mullerian ducts = details: chick embryo; Huston et al., Gen. Comp. Endocrinol. 57: 88-102 (1985); cited from earlier work
[1] = tested on: F₁ Hybrids of Rhode Island Males Crossed With Plymouth Barred Rock Females; assay: Gonadal sex type of 14 day embryos after in ovo injection; format: in vivo, chicken
Method: Fertilized chicken embryos were injected on day 5 of incubation with the aromatase inhibitor 1,4,6-androstatriene-3,17-dione. The inhibitor was dissolved in 1,2-propane-diol at a concentration of 20 mg/ml and the injection volume was 100 µl producing a dose of 2 mg.

[2] = tested on: Line 139 White Leghorn Chickens; details: for Female / Male / Und. (Undetermined): gonadal sex type at day 14, number of embryos; for Survived day 14: number of embryos
Method: (§1) The inhibitor was dissolved in saline at concentrations ranging form 1 mg/ml to 100 mg/ml and the injection volume ranged from 20 µl to 100 µl producing doses of 20 µg to 10 mg. Injections were made with a 23 G x 1 inch needle. A light source was used to orient the eggs and the injection is made under the air sac into the egg white surrounding the developing embryo. The hole was sealed with Scotch tape and the eggs were placed in a humidified, rocking incubator. At day fourteen of incubation, the embryos were removed form their shells and dissected to observe development of the gonads.

[3] = tested on: Line 67 White Leghorn embryos; details: in vivo
Method: as §1

in vivo = details: chicken, embryos in ovo, %Hatched
Method: as §1
(§2) The procedures are the same as described above.

[4] = tested on: Abor Acre x Abor Acre Hybrid Broiler Chickens; assay: in vivo
Method: as §1, §2

turkey embryos = tested on: turkey embryos
Method: A light source was used to orient the eggs and the injection is made under the air sac into the egg white surrounding the developing embryo. The hole was sealed with Scotch tape and the eggs were placed in a humidified, rocking incubator. The birds were allowed to hatch and the phenotypic and genotypic sex determined.

[5] = tested on: autosexing strains of chickens
Method: (§3) To more easily monitor changes in development as a function of age according to genetic sex two different autosexing strains of chickens were treated as above. All chickens were allowed to reach sexual maturity. […] One of the three was killed after 24 weeks and the remaining two (tag numbers 1977 and 1981) were killed after 31 weeks. Prior to killing blood was taken from each animal and used to determine sex steroid levels. At the time of killing the gonads were removed and fixed for histology in Bouin's fixative.
The right gonad and oviduct of the normal female begins to regress during embryogenesis and at maturity females have a single ovary and oviduct. The remaining left ovary consists of a series of follicles staged to mature at daily intervals.

[6] = tested on: hybrids used in Example 3; details: for Estradiol / Testosterone: serum
Method: as §3
Estradiol and testosterone levels were determined in serum samples using commercial RIA assay kits which are well known in the art.

[7] = tested on: gonads from control males and treated females; details: in vivo
Method: Histological examination of gonads from control males and treated females at 31 weeks of age was carried out on tissue fixed in Bouin's solution prior to embedding in paraffin. Sections were stained with hematoxylin and eosin.

[8] = gonadal sex type at day 14, number of embryos, 2.0 mg injected on day 5
[9] = Experiment 1, 20 µg injected on day 5
[10] = Experiment 1, 100 µg injected on day 5
[11] = Experiment 1, 2 mg injected on day 5
[12] = Experiment 1, 10 mg injected on day 5, none survived
[13] = Experiment 2, 100 µg injected on day 4
[14] = Experiment 2, 1 mg injected on day 4
[15] = Experiment 3, 100 µg injected on day 5
[16] = Experiment 3, 1 mg injected on day 5
[17] = animal 1977, treated genetic female, phenotypic male, 31 weeks
[18] = animal 1978, treated genetic male
[19] = animal 1981, treated genetic female, phenotypic male, 31 weeks

CC/C(=C(\c1ccccc1)c1ccc(OCCN(C)C)cc1)c1ccccc1 [tamoxifen]
effect on the female Mullerian ducts (female Mullerian ducts): little effect

C[C@]12C=CC(=O)C=C1C=C[C@@H]1[C@@H]2CC[C@]2(C)C(=O)CC[C@@H]12 [1,4,6-androstatriene-3,17-dione]
birds being males ([1]; 2 mg injected on day 5, gonads at day 14): 100%
Female [1, 8]: 0
Male [1, 8]: 5
Survived day 14 ([1]; number of embryos, 2.0 mg in 1,2-propane-diol injected on day 5): 5

C#C[C@]1(O)CC[C@H]2[C@@H]3CCC4=CC(=O)CC[C@@H]4[C@H]3CC[C@@]21C [norethindrone]
effect on the female Mullerian ducts (female Mullerian ducts): partial regression of the upper end of the left Mullerian duct as well as complete loss of the lower ends of both ducts

O=C(c1ccc(OCCN2CCCC2)cc1)c1c(-c2ccc(O)cc2)sc2cc(O)ccc12 [LY117018]
effect on the female Mullerian ducts (female Mullerian ducts): little effect

N#Cc1ccc(C2CCCc3cncn32)cc1 (racemic) [± 5-(p-cyanophenyl)-5,6,7,8-tetrahydroimidazo [1,5-α] pyridine hydrochloride]
Female [2, 9]: 2
Male [2, 9]: 0
Und. (Undetermined) [2, 9]: 0
Female [2, 10]: 0
Male [2, 10]: 3
Und. (Undetermined) [2, 10]: 0
Female [2, 11]: 0
Male [2, 11]: 2
Und. (Undetermined) [2, 11]: 0
Female [2, 12]: 0
Male [2, 12]: 0
Und. (Undetermined) [2, 12]: 0
Female [2, 13]: 0
Male [2, 13]: 3
Und. (Undetermined) [2, 13]: 1
Female [2, 14]: 0
Male [2, 14]: 4
Und. (Undetermined) [2, 14]: 0
Female [2, 15]: 0
Male [2, 15]: 4
Und. (Undetermined) [2, 15]: 1
Female [2, 16]: 0
Male [2, 16]: 5
Und. (Undetermined) [2, 16]: 0
Survived day 14 ([2]; Experiment 1, 20 µg injected on day 5, 4 injected): 2
Survived day 14 ([2]; Experiment 1, 100 µg injected on day 5, 4 injected): 3
Survived day 14 ([2]; Experiment 1, 2 mg injected on day 5, 4 injected): 2
Survived day 14 ([2]; Experiment 1, 10 mg injected on day 5, 4 injected): 0
Survived day 14 ([2]; Experiment 2, 100 µg injected on day 4, 5 injected): 4
Survived day 14 ([2]; Experiment 2, 1 mg injected on day 4, 6 injected): 4
Survived day 14 ([2]; Experiment 3, 100 µg injected on day 5, 7 injected): 5
Survived day 14 ([2]; Experiment 3, 1 mg injected on day 5, 7 injected): 5
vent sexed as males [3]: all birds
survival (in vivo; 0.01 mg, 10 µg injected on day 5): 72%
survival (in vivo; 0.05 mg, 50 µg injected on day 0): 40%
survival (in vivo; 0.05 mg, 50 µg injected on day 5): 67%
survival (in vivo; 0.1 mg, 100 µg injected on day 5): 69%
Female ([4]; 10 µg injected on day 5): 36
Male ([4]; 10 µg injected on day 5): 60
Female ([4]; 50 µg injected on day 0): 2
Male ([4]; 50 µg injected on day 0): 45
Female ([4]; 50 µg injected on day 5): 0
Male ([4]; 50 µg injected on day 5): 88
Female ([4]; 100 µg injected on day 5): 0
Male ([4]; 100 µg injected on day 5): 91
phenotype of unhatched embryos (turkey embryos; 1 mg, 2 pipped embryos and 2 embryos that died after 25 and 27 days of incubation): All embryos were phenotypic male
vent sexed as male (turkey embryos; 1 mg, of 4 hatched birds, 2 feather-sexed as female and 2 as male): 4
birds hatched (turkey embryos; eggs inoculated with 1 mg, day 4 or 5 of incubation): Four
abdominal fat of treated females ([5]; 31 week old, abdominal cavities opened, compared with control females): absence of abdominal fat
treated females developed a male phenotype ([5]; Sex-Sal autosexing strain, injected day 4 or 5, at sexual maturity): one of two
appearance and behavior of treated females ([5]; by seven months of age, injected day 4 or 5): obviously masculine in appearance and behavior
adult females developed male phenotypes ([5]; hybrids used in Example 3, injected day 4 or 5, at sexual maturity): three of four
presence of testes in treated females ([5]; two gonads without oviducts, at necropsy): three of the four
serum hormone profiles of treated females ([6]; 31 week old): resembling adult males
Estradiol ([6]; animal 1976, treated genetic female that did not respond, phenotypically female): 57 ng/mL
Estradiol [6, 17]: 12 ng/mL
Testosterone [6, 17]: 224 ng/mL
Estradiol [6, 18]: 5 ng/mL
Testosterone [6, 18]: 412 ng/mL
Estradiol [6, 19]: 2 ng/mL
Testosterone [6, 19]: 109 ng/mL
seminiferous tubules in gonads of treated females [7]: present in both the left and right gonads
